# Source: patent US10947216B2, “Amide compounds and method for making and using” (Rigel Pharmaceuticals, Inc., priority 2016, dated 2021)
# What was measured:
# IL-23p19 = test: LPS Induced IL23p19 in THP-1 Cells (with IFNγ Primed) Assay; type: cell-based, human; conditions: Homo sapiens, THP-1, THP-1 cells, IFNγ (50 ng/mL) primed, 1 hour compound pre-incubation, LPS 1 ug/mL 18 hours, 10 pt; read-out: IL23-p19 ELISA, THP1-IFNy, LPS, 10 pt EC50
# Experimental: LPS Induced IL23p19 in THP-1 Cells (with IFNγ Primed) Assay
# Method THP-1 Cells Stimulation:
# On day 1, 50K/well THP-1 cells were seeded and primed with IFNγ (50 ng/mL) in 384-well plates for about 18 hours in RPMI media with 10% FBS. […] 50 μL/well 2× compound was added to 50 μL/well THP-1 cells (with IFNγ primed) in duplicate in 384 well tissue culture plates. […] Day 3, after stimulation for 18 hours at 37° C., 5% CO2, the assay plate was centrifuged and 70 μL/well supernatant was harvested. IL-23p19 protein in 70 μL/well of supernatant was measured by sandwich ELISA, and 25 μl/well Cell Titer Glo reagent was added to the remaining cells to measure compound toxicity.
# Human IL-23p19 Sandwich ELISA:
# Maxisorp immuno ELISA plates were pre-coated with 25 μL/well of anti-IL-23p19 capture antibody (2.5 ug/mL) in PBS overnight at room temperature. After washing with 1×PBST, the plates were blocked using 100 μL/well of 1% BSA in PBS for 2 hours at room temperature. The plates were washed three times with 1×PBST and 70 μL/well supernatant were added. The plates were incubated at room temperature for 2 hours with shaking and washed three times with 1×PBST. 25 μL/well of biotin labeled anti-IL-12(p40/p70) detection antibody (100 ng/mL) in PBS with 1% BSA was added and the plates were incubated at room temperature for 2 hours with shaking. After washing three times with 1×PBST, 25 μL/well of streptavidin-HRP (1:200) in PBS with 1% BSA was added and the plates were incubated at room temperature for 20 minutes with shaking. The plates were washed three times with 1×PBST and 25 μL/well of Super Signal ELISA Pico Chemiluminescent Substrate were added. The plates were read with a luminometer, and the chemiluminescence values were entered into Athena (Rigel) for curve fitting, EC50 calculation, and database storage.
# IL-23 (p19/p40) = test: IL23-p19 ELISA, dendritic cells (DC differentiated from human PBMC, IFNγ primed), LPS stimulated; type: cell-based; conditions: Dendritic cell, human PBMC-derived dendritic cells, 1 h compound pre-incubation, LPS 1 μg/ml 18 hours, 10 pt
# Experimental: Compound Screening Using DC Cells
# I. Differentiation of PBMC's to DC Cells:
# After 2 hours, the media including floating cells was aspirated out carefully and 12 ml of fresh RPMI media (10% FBS) containing GMCSF (100 ng/ml) and IL4 (20 ng/ml) was added, and the flask was kept in a 37° C. incubator for 7 days.
# After 3 days, fresh GMCSF (100 ng/ml) and IL4 (20 ng/ml) were added to the flask and the incubation continued. After 7 days, the fully differentiated cells were harvested by spinning down (1200 rpm/5 min) and aspirating the media. The cells were suspended in fresh RPMI media (10% FBS) containing 50 ng/ml IFNγ (1000 U/ml) and then plated (50K/well in 100 μl) onto a white clear bottom 96 well plate and left in a 37° C. incubator for 24 hours.
# II. Addition of Compounds:
# After 24 hours incubation, 100 μl of RPMI media was added containing 2× concentrated test compound per well to the above cell-culture media (final concentration becomes 1×) and the plates were pre-incubated for 1 hour at 37° C. before stimulating with LPS.
# The mixture was shaken and incubated the plates at 37° C. for an additional 18 hours.
# 155 μl of the supernatant was harvested from each well carefully (without the tip touching the bottom of the well) and to the remaining 50 μl/well of the cell culture plate was added 50 μl of Cell Titer Glo reagent. The mixture was incubated for 1-2 minutes on a shaker and the plate was read for luminescence intensity to determine the compound cytotoxicity. The cell culture supernatant collected above was used to carry out IL23 ELISA (65 μl—Supernatant) and IL10 ELISA (90 μl—Supernatant) as described below.
# Human IL-23 (p19/p40) ELISA Protocol (e-Biosciences)
# To 10.5 ml PBS add 50 μl of anti-IL23 (p19) was added capture antibody (2.5 μg/ml). The mixture was mixed well and 100 μl of the coating solution was added to each well of the 96 well white plates from Pierce. The wells were covered and incubated overnight at 4° C.
# The anti-IL23 (p19)-antibody-coated plates were washed 2× using TBST (use plate washer) and blocked using 200 μl of 0.5% Casein for 1.5-2 hours at room temperature with shaking.
# Addition of Supernatant and Detection:
# The plates were washed 2× using TBST and the supernatant was transferred (65 μl/well) to the above pre-blocked/IL23(p19)-antibody-coated 96 well plate, and incubated at room temperature for 1.5 hours with shaking.
# The plates were washed 4× using TBST (plate washer) and 100 μl/well detection antibody solution prepared from 2 μl of biotin labeled anti-IL-12 (p40/p70) antibody in 11 ml 1% BSA/PBS solution (1-5000 dilution) was added. The plates were incubated for 1 hour with shaking at Room temperature.
# Again, the plates were washed 4× with TBST and 100 μl of HRP labeled Streptavidin (R&D Systems) solution (10 μl/10 ml 1% BSA solution) was added, and the plates were incubated at room temperature for another 45 minutes with shaking.
# After 45 minutes, the plates were washed with TBST 4× and 100 μl/well Super Signal ELISA Pico Chemiluminescent Substrate from Pierce (3.5 ml A+3.5 ml B+3.5 ml MQ water) was added. The plates were shaken for 1-2 minutes then read on a plate reader.
EC50 (IL-23p19) [µM],EC50 (IL-23 (p19/p40)) [µM],Structure (SMILES)
1.26,2.72,"Cn1cc(NC(=O)c2cccc(-c3cccnc3)n2)c(-c2ccccn2)n1 [Compound I-2, N-(1-methyl-3-(pyridin-2-yl)-1H-pyrazol-4-yl)-[2,3′-bipyridine]-6-carboxamide]"
0.536,0.162,"Cn1cc(NC(=O)c2cccc(-c3ccn[nH]3)n2)c(-c2ccccn2)n1 [Compound I-6, N-(1-methyl-3-(pyridin-2-yl)-1H-pyrazol-4-yl)-6-(1H-pyrazol-5-yl)picolinamide]"
0.533,0.354,"Cc1cc(-c2cccc(C(=O)Nc3cn(C)nc3-c3ccccn3)n2)[nH]n1 [Compound I-7, 6-(3-methyl-1H-pyrazol-5-yl)-N-(1-methyl-3-(pyridin-2-yl)-1H-pyrazol-4-yl)picolinamide]"
1.7,2.42,"Cn1cc(-c2cccc(C(=O)Nc3cn(C)nc3-c3ccccn3)n2)cn1 [Compound I-8, 6-(1-methyl-1H-pyrazol-4-yl)-N-(1-methyl-3-(pyridin-2-yl)-1H-pyrazol-4-yl)picolinamide]"
0.281,0.178,"Cn1cc(NC(=O)c2cccc(-c3cn[nH]c3)n2)c(-c2ccccn2)n1 [Compound I-9, N-(1-methyl-3-(pyridin-2-yl)-1H-pyrazol-4-yl)-6-(1H-pyrazol-4-yl)picolinamide]"
5.9,4.12,"Cn1cc(NC(=O)c2cccc(-c3cc[nH]c3)n2)c(-c2ccccn2)n1 [Compound I-11, N-(1-methyl-3-(pyridin-2-yl)-1H-pyrazol-4-yl)-6-(1H-pyrrol-3-yl)picolinamide]"
0.25,0.106,"Cc1cncc(-c2cccc(C(=O)Nc3cn(C)nc3-c3ccccn3)n2)c1 [Compound I-12, 5′-methyl-N-(1-methyl-3-(pyridin-2-yl)-1H-pyrazol-4-yl)-[2,3′-bipyridine]-6-carboxamide]"
1.34,0.531,"Cn1cc(NC(=O)c2cccc(-c3cncc(C4CC4)c3)n2)c(-c2ccccn2)n1 [Compound I-13, 5′-cyclopropyl-N-(1-methyl-3-(pyridin-2-yl)-1H-pyrazol-4-yl)-[2,3′-bipyridine]-6-carboxamide]"
6.35,1.2,"Cc1ccc(-c2cccc(C(=O)Nc3cn(C)nc3-c3ccccn3)n2)cn1 [Compound I-16, 6′-methyl-N-(1-methyl-3-(pyridin-2-yl)-1H-pyrazol-4-yl)-[2,3′-bipyridine]-6-carboxamide]"
2.54,5.63,"COc1cncc(-c2cccc(C(=O)Nc3cn(C)nc3-c3ccccn3)n2)c1 [Compound I-19, 5′-methoxy-N-(1-methyl-3-(pyridin-2-yl)-1H-pyrazol-4-yl)-[2,3′-bipyridine]-6-carboxamide]"
2.29,1.79,"Cn1cc(NC(=O)c2cccc(-c3cncc(OC4CCOCC4)c3)n2)c(-c2ccccn2)n1 [Compound I-23, N-(1-methyl-3-(pyridin-2-yl)-1H-pyrazol-4-yl)-5′-((tetrahydro-2H-pyran-4-yl)oxy)-[2,3′-bipyridine]-6-carboxamide]"
0.169,0.0347,"Cn1cc(NC(=O)c2cccc(-c3cncc(N)c3)n2)c(-c2ccccn2)n1 [Compound I-25, 5′-amino-N-(1-methyl-3-(pyridin-2-yl)-1H-pyrazol-4-yl)-[2,3′-bipyridine]-6-carboxamide]"
2.87,0.204,"CNc1cncc(-c2cccc(C(=O)Nc3cn(C)nc3-c3ccccn3)n2)c1 [Compound I-26, N-(1-methyl-3-(pyridin-2-yl)-1H-pyrazol-4-yl)-5′-(methylamino)-[2,3′-bipyridine]-6-carboxamide]"
7.02,0.342,"Cn1cc(NC(=O)c2cccc(-c3cncc(NC4CC4)c3)n2)c(-c2ccccn2)n1 [Compound I-27, 5′-(cyclopropylamino)-N-(1-methyl-3-(pyridin-2-yl)-1H-pyrazol-4-yl)-[2,3′-bipyridine]-6-carboxamide]"
1.45,0.546,"CC(C)Nc1cncc(-c2cccc(C(=O)Nc3cn(C)nc3-c3ccccn3)n2)c1 [Compound I-28, 5′-(isopropylamino)-N-(1-methyl-3-(pyridin-2-yl)-1H-pyrazol-4-yl)-[2,3′-bipyridine]-6-carboxamide]"
16.4,0.91,"Cn1cc(NC(=O)c2cccc(-c3cncc(NC(C)(C)C)c3)n2)c(-c2ccccn2)n1 [Compound I-29, 5′-(tert-butylamino)-N-(1-methyl-3-(pyridin-2-yl)-1H-pyrazol-4-yl)-[2,3′-bipyridine]-6-carboxamide]"
0.772,3.21,"Cn1cc(NC(=O)c2cccc(-c3cncc(NC4CCOCC4)c3)n2)c(-c2ccccn2)n1 [Compound I-30, N-(1-methyl-3-(pyridin-2-yl)-1H-pyrazol-4-yl)-5′-((tetrahydro-2H-pyran-4-yl)amino)-[2,3′-bipyridine]-6-carboxamide]"
2.52,7.19,"Cn1cc(NC(=O)c2cccc(-c3cncc(NCC4CC4)c3)n2)c(-c2ccccn2)n1 [Compound I-32, 5′-((cyclopropylmethyl)amino)-N-(1-methyl-3-(pyridin-2-yl)-1H-pyrazol-4-yl)-[2,3′-bipyridine]-6-carboxamide]"
3.16,1.02,"Cn1cc(NC(=O)c2cccc(-c3cncc(NCC(F)(F)F)c3)n2)c(-c2ccccn2)n1 [Compound I-33, N-(1-methyl-3-(pyridin-2-yl)-1H-pyrazol-4-yl)-5′-((2,2,2-trifluoroethyl)amino)-[2,3′-bipyridine]-6-carboxamide]"
–,6.5,"O=C(Nc1cn(C2CCOCC2)nc1-c1ccccn1)c1cccc(-c2ccncc2)n1 [Compound I-167, N-(3-(pyridin-2-yl)-1-(tetrahydro-2H-pyran-4-yl)-1H-pyrazol-4-yl)-[2,4′-bipyridine]-6-carboxamide]"
–,2.38,"Cn1cc(NC(=O)c2cccc(-c3cn[nH]c3)n2)c(-c2ccc(N3CCOCC3)cn2)n1 [Compound I-171, N-(1-methyl-3-(5-morpholinopyridin-2-yl)-1H-pyrazol-4-yl)-6-(1H-pyrazol-4-yl)picolinamide]"
–,0.0468,"Cn1cc(NC(=O)c2cccc(-c3cc[nH]n3)n2)c(-c2ccc(N3CCOCC3)cn2)n1 [Compound I-172, N-(1-methyl-3-(5-morpholinopyridin-2-yl)-1H-pyrazol-4-yl)-6-(1H-pyrazol-3-yl)picolinamide]"
